Laboratory results reported in US7521540B2, “CYR61 compositions and methods” (Munin Corporation, priority 1996, dated 2009).

Columns and labels:
[1] = test system: 1064SK primary human foreskin fibroblasts; experiment: Fibroblast adhesion assay (methylene blue, A620); assay type: cell-based; details: for 1064SK adhesion to Cyr61-coated wells with agent: Cyr61 2 μg/ml, agent at the level stated in the block, Mg2+ 5.0 mM after EDTA; for 1064SK adhesion to Type I collagen-coated wells with agent: Type I collagen 2 μg/ml; for 1064SK adhesion to vitronectin-coated wells with agent: vitronectin 0.5 μg/ml; for concentration that inhibited cell adhesion to Cyr61: in cell suspension
Protocol: The ability of Cyr61 to mediate cell adhesion in normal fibroblasts was investigated. Microtiter wells were coated with purified recombinant Cyr61 protein, and 1064SK primary human foreskin fibroblasts were allowed to adhere under serum-free conditions. […] 50 μl cell suspensions were plated on microtiter wells coated with varying concentrations (0.5-5.0 μg/ml) of Cyr61 protein. After incubation at 37° C. for 30 minutes, adherent cells were fixed and stained with methylene blue.
In another experiment, microtiter wells were coated with either BSA, Cyr61 (2 μg/ml), or vitronectin (VN; 0.5 μg/ml) and blocked with affinity-purified anti-Cyr61 antibodies for one hour at 37° C. before 1064SK cells were plated.
The effects of divalent cations in cell adhesion to Cyr61 was also investigated. […] Data are means from triplicate determinations. […] Inhibition by Ca^2+ is characteristic of adhesion through some members of the β1 family of integrins, including receptors that bind type I collagen, laminin, and vitronectin (integrins α2β1, α6β1, and αVβ1) in fibroblasts, as well as the lymphocyte-specific integrin αLβ2.
The effects of RGD peptides on Cyr61-mediated fibroblast binding was tested by plating cells in wells coated with Cyr61 (2 μg/ml). Type I collagen (2 μg/ml) or vitronectin (0.5 μg/ml), 2 mM GRGDSP or GRGESP peptide was then added.
Cells were also pre-incubated with 40 μg/ml monoclonal antibodies against the integrin α5 or the integrin αV subunits at room temperature for 30 minutes, then plated on wells coated with Cyr61 (2 μg/ml), vitronectin (0.5 μg/ml) or fibronectin (FN, 1 μg/ml). […] The data are means, representative of three experiments.
The 1064 SK cells were also analyzed using the monoclonal antibody JBIA, which binds the β1 integrin subunit. Cells were pre-incubated with the antibody (50 μg/ml) before plating on microtiter wells coated with Cyr61 (2 μg/ml), Type I collagen (2 μg/ml), or vitronectin (0.5 μg/ml). […] Data are means, representative of three experiments.
To identify the specific β1 integrin that mediates fibroblast adhesion to Cyr61, the inhibitory effects of function-blocking monoclonal antibodies were tested against various integrin α subunits. […] The data are means, representative of at least three experiments.

HUVE cells = experiment: HUVE cell attachment to murine Cyr61-coated plates; assay type: cell-based, human; details: Cyr61-coated surfaces
Protocol: Another embodiment of the invention is directed to the use of Cyr61 to mediate cellular attachment to the extracellular matrix. Induction of cellular adhesion was investigated using murine Cyr61, fibronectin, and bovine serum albumin (BSA). Immunological 96-well plates (Falcon brand) were coated with 50 μl of 0.1% BSA in PBS at 4° C. in the presence of 0-30 μg/ml concentrations of murine Cyr61 or fibronectin. After two hours exposure to the coating solution, non-diluted immune or pre-immune antisera (30 μl/well), or affinity-purified anti-Cyr61 antibodies were added. For some wells, the coating mixture was adjusted to 10 mM DTT or 100 mM HCl. After 16 hours incubation, the coating solution was removed and the well surface was blocked with 1% BSA in phosphate-buffered saline (PBS) for 1 hour at room temperature. HUVE cells were plated in Ham's complete F12K medium [GIBCO-BRL, Inc.; Ham, Proc. Natl. Acacd. Sci. (USA) 53:786 (1965)] at 5×10^3-10^4 cells/well. Cycloheximide was added to 100 μg/ml immediately before plating and monensin was added to 1 μM 14 hours before plating. After a 2-hour incubation at 37° C., the wells were washed with PBS and attached cells were fixed and stained with methylene blue. The attachment efficiency was determined by quantitative dye extraction and measurement of the extract absorbance at 650 nm. Oliver et al., J. Cell. Sci. 92:513-518 (1989).

platelets = experiment: Platelet adhesion assay; assay type: cell-based, human
Protocol: Microtiter wells were coated with purified recombinant Fisp12/mCTGF or Cyr61, and the adhesion of isolated platelets to these proteins was detected with ^125I-mAb15, an anti-β3 monoclonal antibody (Frelinger et al., J. Biol. Chem 265:6346-6352 [1990]). Platelets were obtained from venous blood drawn from healthy donors and collected into acid-citrate-dextrose (ACD). Washed platelets were prepared by diffenential centrifugation as described (Kinlough-Rathbone et al. Thromb. Haemostas 2:291-308 [1997]), and finally resuspended in HEPES-Tyrode's buffer (5 mM HEPES, pH 7.35, 1 mM MgCl2, 1 mM CaCl2, 135 mM NaCl, 2.7 mM KCl, 11.9 mM NaHCO3, 1 mg/ml dextrose and 3.5 mg/ml BSA). The platelet concentration was adjusted to […].
Microtiter wells (Immulon 2 removawell strips, Dynex Technologies, Inc.) were coated with Cyr61, Fisp12/mCTGF, or fibrinogen (25 μg/ml, 50 μl/well) incubated overnight at 22° C., and then blocked with 3% BSA at 37° C. for 2 hours. Washed platelets were added to the wells (100 μl/well) in the presence and absence of platelet agonists and incubated at 37° C. for 30 minutes. The wells were washed with HEPES-Tyrode's buffer and adherent platelets were detected with ^125I-mAb15, an anti-β3 monoclonal antibody. Exposure to the labeled antibody ([…], 50 μl/well) proceeded for 1 hour at 22° C. After extensive washing with HEPES-Tyrode's buffer, bound radioactivity was determined by γ-counting. In inhibition studies, washed platelets were pre-incubated with blocking peptides or antibodies at 37° C. for 15 minutes prior to addition to microtiter wells.
The anti-β3 antibody was radioiodinated with carrier-free Na^125I (Amersham Corp.) using the IODO-BEADS iodination reagent (Pierce) to a specific activity of approximately 2 μCi/μg. […] As controls, BSA- and fibrinogen-coated (KabiVitrum Inc.) wells were also used. Initially, the adhesion of unactivated versus activated platelets to immobilized Fisp12/mCTGF and Cyr61 was compared. To ensure that plateltes were not activated during the washing procedures, PGl2 (100 nM), which inhibits activation by raising platelet cAMP levels, was added to the platelet suspensions. […]

[2] = test system: Human Microvascular Endothelial Cells; experiment: In vitro migration assay for angiogenesis inhibitors; assay type: cell-based; details: for migrating cells per set of three high-powered fields, Cyr61 plus compound: Cyr61 1 μg/ml plus 10 mM compound
Protocol: As in the preceding Example, human microvascular endothelial cells (Clonetics) were used. In one series of assays, several carbohydrates and carbohydrate derivatives were analyzed. These compounds included 10 mM mannose, 10 mM mannose-6-phosphate, and 10 mM galactose. […] Cyr61 plus galactose induced the migration of approximately 74 cells per set of three high-powered fields. […] The angiogenic activity of basic FGF (10 ng/ml) was also tested, as described above, with and without mannose-6-phosphate. In the presence of 10 mM mannose-6-phosphate, bFGF induced 51 cells per set of three high-powered fields to migrate; in its absence, bFGF induced the migration of approximately 52 cells. […] The effect of mannose-6-phosphate on IGF II activity was anticipated because mannose-6-phosphate is known to compete with IGF II for their common receptor (the IGF II receptor). […] Moreover, because there is an essentially perfect correlation between the in vitro migration assay and the in vivo angiogenesis assay, described below, mannose-6-phosphate has been identified as an inhibitor of angiogenesis based on the results of the assay disclosed herein. Accordingly, the invention contemplates a method of inhibiting angiogenesis comprising the step of administering an inhibitor the angiogenic activity of Cyr61 such as mannose-6-phosphate. Assays such as that described above may also be used to screen for other inhibitors of angiogenesis which may be useful in the treatment of diseases associated with angiogenesis such as cancer, and diseases of the eye which are accompanied by neovascularization.

[Ca+2] [Ca^2+]
effect of agent on fibroblast adhesion to Cyr61 [1]: abolished cell adhesion to Cyr61 competely

O=C(O)CN(CCOCCOCCN(CC(=O)O)CC(=O)O)CC(=O)O [EGTA]
effect of agent on HUVE cell adhesion to Cyr61 (HUVE cells): completely abolished

O=S(=O)([O-])[O-].[Mg+2] [MgSO4, magnesium sulfate]
effect of agent on fibroblast adhesion to Cyr61 [1]: resuced

[Mg+2] [Mg^2+]
effect of agent on fibroblast adhesion to Cyr61 [1]: had no effect
1064SK adhesion to Cyr61-coated wells with agent [1]: 0.50 A620
1064SK adhesion to Type I collagen-coated wells with agent [1]: 0.58 A620
1064SK adhesion to vitronectin-coated wells with agent [1]: 0.55 A620

[Mn+2] [Mn^2+]
effect of agent on fibroblast adhesion to Cyr61 [1]: had no effect

CCCCC[C@H](O)/C=C/[C@@H]1[C@H]2C/C(=C/CCCC(=O)O)O[C@H]2C[C@H]1O [PGl2]
effect of agent on activated platelet adhesion to Cyr61 and Fisp12/mCTGF (platelets): significantly inhibited

C[C@@H]1C[C@@H]([C@H](O)CC2CC(=O)NC(=O)C2)C(=O)[C@@H](C)C1 [cycloheximide]
effect of agent on HUVE cell adhesion to Cyr61 (HUVE cells): insensitive

O=C[C@H](O)[C@@H](O)[C@@H](O)[C@H](O)CO [galactose]
migrating cells per set of three high-powered fields, Cyr61 plus compound [2]: approximately 74 cells

O=C[C@@H](O)[C@@H](O)[C@H](O)[C@H](O)COP(=O)(O)O [mannose-6-phosphate]
migrating cells induced by Cyr61 in presence of compound [2]: approximately 12 cells
migrating cells induced by IGF-II in presence of compound [2]: ~11 cells
migrating cells per set of three high-powered fields, Cyr61 plus compound [2]: approximately 2 cells
migrating cells induced by bFGF in presence of compound ([2]; bFGF 10 ng/ml, 10 mM compound): 51 cells

CC[C@@]1([C@@H]2O[C@@H]([C@H]3O[C@@](O)(CO)[C@H](C)C[C@@H]3C)C[C@@H]2C)CC[C@H]([C@]2(C)CC[C@]3(C[C@H](O)[C@@H](C)[C@@H]([C@@H](C)[C@@H](OC)[C@H](C)C(=O)O)O3)O2)O1 [monensin]
effect of agent on HUVE cell adhesion to Cyr61 (HUVE cells): insensitive

[Na+].[O-][Cl+2]([O-])[O-] [sodium chlorate]
inhibition of cell adhesion to other substrates ([1]; 40 mM, fibronectin, type I collagen, vitronectin, laminin): 10-20%
inhibition of cell adhesion to Cyr61 ([1]; sodium chlorate 40 mM): 90%

Chondroitin sulfate A [chondroitin A]
concentration that inhibited cell adhesion to Cyr61 [1]: 1000 µg/mL

Chondroitin sulfate B (Dermatan sulfate) [chondroitin B]
concentration that inhibited cell adhesion to Cyr61 [1]: 10 µg/mL

Chondroitin sulfate C [chondroitin C]
inhibition of adhesion to Cyr61 ([1]; 0.01-1000 μg/ml): failed to inhibit adhesion to Cyr61 at all concentrations tested

GRGDSP
1064SK adhesion to Cyr61-coated wells with agent [1]: ~0.48 A620
1064SK adhesion to Type I collagen-coated wells with agent [1]: 0.47 A620
1064SK adhesion to vitronectin-coated wells with agent [1]: 0.05 A620
effect of agent on activated platelet adhesion to Cyr61 and Fisp12/mCTGF (platelets): specifically inhibited

GRGESP
1064SK adhesion to Cyr61-coated wells with agent [1]: ~0.46 A620
1064SK adhesion to Type I collagen-coated wells with agent [1]: 0.49 A620
1064SK adhesion to vitronectin-coated wells with agent [1]: 0.41 A620

IGF-II: Insulin Growth Factor II
migrating cells, chemoattractant without mannose-6-phosphate ([2]; bFGF 10 ng/ml, Cyr61, IGF-II): ~47 cells

RGES [reference compound]
effect of agent on adhesion of ADP-activated platelets to fibrinogen (platelets): not by RGES or LM609

chondroitinase A, B, C
1064SK adhesion to Cyr61-coated wells with agent [1]: 0.57 A620
1064SK adhesion to fibronectin-coated wells with agent ([1]; fibronectin 1 μg/ml): 0.65 A620
1064SK adhesion to vitronectin-coated wells with agent [1]: 0.69 A620

heparan sulfate
concentration that inhibited cell adhesion to Cyr61 [1]: 0.1 µg/mL

laminin
1064SK adhesion to coated protein, nothing added ([1]; Cyr61 2, VN 0.5, Type I collagen 2, fibronectin 1, laminin 5 μg/ml): 0.62 A620
